This passage reports IC50 results from ChEMBL document CHEMBL1147461, “Exploration of the P2-P3 SAR of aldehyde cathepsin K inhibitors” (Bioorg Med Chem Lett, 2004).

What is called IC50 is the concentration that inhibits the measured activity by half.

The target in one test is Cathepsin B (Homo sapiens, UniProt P07858). Put plainly: Inhibitory concentration against recombinant human cathepsin B was determined in a fluorescence assay using 10 uM Cbz-Phe-Arg-AMC as substrate.
For the next test, the target named is T1, Cathepsin K (Homo sapiens, UniProt P43235).
T1 sequence (P43235 whole entry): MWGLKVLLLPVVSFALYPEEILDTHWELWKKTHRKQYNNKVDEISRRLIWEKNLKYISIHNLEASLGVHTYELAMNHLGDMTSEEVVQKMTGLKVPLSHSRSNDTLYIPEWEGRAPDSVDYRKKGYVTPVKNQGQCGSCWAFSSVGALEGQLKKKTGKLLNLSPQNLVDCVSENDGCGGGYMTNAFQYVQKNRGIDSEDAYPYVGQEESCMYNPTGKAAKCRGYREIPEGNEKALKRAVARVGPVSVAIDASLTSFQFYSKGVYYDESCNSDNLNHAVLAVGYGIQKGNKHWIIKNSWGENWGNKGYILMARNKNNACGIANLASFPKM
Briefly: Inhibitory concentration against recombinant human cathepsin K determined in a fluorescence assay using 10 uM Cbz-Phe-Arg-AMC as substrate.

Another test addresses Procathepsin L (Homo sapiens, UniProt P07711). Put plainly: Inhibitory concentration against recombinant human cathepsin L was determined in a fluorescence assay using 5 uM Cbz-Phe-Arg-AMC as substrate.

Procathepsin L, sequence (P07711 whole entry): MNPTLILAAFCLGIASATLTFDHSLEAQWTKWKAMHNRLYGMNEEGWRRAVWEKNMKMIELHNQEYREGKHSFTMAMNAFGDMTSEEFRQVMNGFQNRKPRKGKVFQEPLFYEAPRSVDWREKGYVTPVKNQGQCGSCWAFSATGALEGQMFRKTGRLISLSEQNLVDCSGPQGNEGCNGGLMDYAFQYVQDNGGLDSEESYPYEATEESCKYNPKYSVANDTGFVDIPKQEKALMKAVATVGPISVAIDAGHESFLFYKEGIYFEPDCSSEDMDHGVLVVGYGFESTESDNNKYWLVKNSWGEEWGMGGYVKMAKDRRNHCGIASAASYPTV

Consider `CCCC[C@@H](C=O)NC(=O)OC(CC)(CC)Cc1ccccc1`, for which the IC50 at Cathepsin B was determined as 2200 nM; at Cathepsin K, 2.1 nM; at Procathepsin L, 110 nM.

With `CCCC[C@@H](C=O)NC(=O)OC(C)(C)Cc1ccc(Cl)cc1`, the IC50 at Cathepsin K is 4.6 nM.

As to `CCCC[C@@H](C=O)NC(=O)OC(CC(C)C)CC(C)C`, the IC50 at Cathepsin K worked out at 1.1 nM.

On to `CCCC[C@@H](C=O)NC(=O)O[C@@H](CC)Cc1ccccc1`, for which the IC50 on Cathepsin B stood at 72 nM; on Cathepsin K, 0.13 nM; at Procathepsin L, 15 nM.

On to `CCCC[C@@H](C=O)NC(=O)OC1(Cc2ccccc2)CCCCC1`, for which the figures for the IC50 at Cathepsin B, on Cathepsin K and on Procathepsin L were 12000 nM, 2 nM and 8500 nM, respectively.

Regarding `CCCC[C@@H](C=O)NC(=O)OC(C)(C)Cc1ccccc1`, the IC50 on Cathepsin K came out at 12 nM.

Take `CCCC[C@@H](C=O)NC(=O)OC(C)(C)Cc1cccc(OC)c1`: the IC50 on Cathepsin K came to 5.4 nM.

On to `CCCC[C@@H](C=O)NC(=O)OCCc1ccccc1`, for which the IC50 on Cathepsin K turned out to be 270 nM.

As to `CCCC[C@@H](C=O)NC(=O)O[C@@H](C)Cc1ccccc1`, the IC50 was found to be 460 nM on Cathepsin B, 1.8 nM on Cathepsin K and 740 nM on Procathepsin L.

As to `CCCC[C@@H](C=O)NC(=O)OC(C(C)C)C(C)C`, on Cathepsin K, the IC50 was determined as 0.56 nM.

On to `CCCC[C@@H](C=O)NC(=O)O[C@@H](C)CC1CCCCC1`, for which the IC50 on Cathepsin B is 400 nM; at Cathepsin K, 2.7 nM; on Procathepsin L, 270 nM.

On to `CCCC[C@@H](C=O)NC(=O)OC(C)(C)Cc1cccc(-c2ccsc2)c1`, for which, at Cathepsin K, the IC50 is 7.6 nM.

`CCCC[C@@H](C=O)NC(=O)O[C@H](Cc1ccccc1)CC(C)C`: the IC50 on Cathepsin K was 6.5 nM.

Regarding `CCCC[C@@H](C=O)NC(=O)OC(C)(C)Cc1ccc(OC)cc1`, the IC50 on Cathepsin K is 2.9 nM.

On to `CCCC[C@@H](C=O)NC(=O)O[C@@H](CCC)Cc1ccccc1`, for which the IC50 at Cathepsin K is 1.5 nM.

For the compound `CCCC[C@@H](C=O)NC(=O)OC(C)(C)Cc1ccccc1Cl`, the IC50 on Cathepsin K came to 3.1 nM.

In the case of `CCCC[C@@H](C=O)NC(=O)OC1(Cc2ccccc2)CCCC1`, the IC50 at Cathepsin B came out at 810 nM; on Procathepsin L, 2000 nM.

`CCCC[C@@H](C=O)NC(=O)OC(CCC)CCC`: on Cathepsin K, the 50% inhibitory concentration (IC50) worked out at 0.87 nM.

Take `CCCC[C@@H](C=O)NC(=O)OCc1ccccc1`: on Cathepsin K, the IC50 came out at 540 nM.

As for `CCCC[C@@H](C=O)NC(=O)OC(Cc1ccccc1)Cc1ccccc1`, the IC50 on Cathepsin K is 71 nM.

As to `CCCC[C@@H](C=O)NC(=O)OC(C)(C(C)C)C(C)C`, at Cathepsin K, the IC50 is 4.7 nM.

As to `CCCC[C@@H](C=O)NC(=O)O[C@H](C)Cc1ccccc1`, the IC50 at Cathepsin K was determined as 100 nM.

Turning to `CCCC[C@@H](C=O)NC(=O)OC1(Cc2ccccc2)CCC1`, the IC50 at Cathepsin B was determined as 3400 nM; on Cathepsin K, 2.4 nM; at Procathepsin L it was 1200 nM.

For `CCCC[C@@H](C=O)NC(=O)OCCCc1ccccc1`, the IC50 at Cathepsin K was determined as 600 nM.

As to `CCCC[C@@H](C=O)NC(=O)OC(CC)CC`, on Cathepsin K, the IC50 was 4 nM.
